# According to the supplement of paper PMC10307832:
# What was measured:
# Test in all cases: relative viability (nuclei count vs DMSO), 5 days (fraction); higher = more cells survive
# [1] = compound: C1/C(=C\C2=CC=CS2)/C(=O)/C(=C/C3=CC=CS3)/C1 + CCNC(=O)c1noc(-c2cc(C(C)C)c(O)cc2O)c1-c1ccc(CN2CCOCC2)cc1 [Luminespib] (partner 0.01 µM)
# Outline: (§1)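 The day after seeding in 1536-well plates, lung cancer cell lines were treated by pin tool with a single drug, or with a fixed anchor-drug dose together with five library-drug doses (not always all listed) in √10 steps. After 5 days, a combined fix-and-stain solution (final 0.05% Triton X-100, 1% formaldehyde, 1 ug/ml Hoechst) was added. Nuclei counted on 4× images gave relative viability as treated counts over vehicle counts, reported as the median of duplicate plates.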
# TPCA-1 + Foretinib = compound: C1=CC(=CC=C1C2=CC(=C(S2)NC(=O)N)C(=O)N)F [TPCA-1] + COc1cc2c(Oc3ccc(NC(=O)C4(C(=O)Nc5ccc(F)cc5)CC4)cc3F)ccnc2cc1OCCCN1CCOCC1 [Foretinib] (partner 0.25 µM)
# Outline: as §1
# Lestaurtinib + OSI-027 = compound: C[C@]12O[C@H](C[C@]1(O)CO)n1c3ccccc3c3c4c(c5c6ccccc6n2c5c31)CNC4=O [Lestaurtinib] + COc1cccc2cc(-c3nc([C@H]4CC[C@H](C(=O)O)CC4)n4ncnc(N)c34)[nH]c12 [OSI-027] (partner 0.5 µM)
# Outline: as §1
# [2] = compound: C1/C(=C\C2=CC=CS2)/C(=O)/C(=C/C3=CC=CS3)/C1 + Nc1nc2[nH]cc(CCc3ccc(C(=O)N[C@@H](CCC(=O)O)C(=O)O)cc3)c2c(=O)[nH]1 [Pemetrexed] (partner 0.2 µM)
# Outline: as §1
cell line,measurement,setting,value
LCLC-97TM1,relative viability,[1]; first compound 0.2 µM,0.734
same,relative viability,[1]; first compound 0.6325 µM,0.813
same,relative viability,[1]; first compound 2 µM,0.754
same,relative viability,[1]; first compound 6.325 µM,0.782
same,relative viability,[1]; first compound 20 µM,0.803
same,relative viability,TPCA-1 + Foretinib; first compound 0.04 µM,1.11
same,relative viability,TPCA-1 + Foretinib; first compound 0.1265 µM,0.877
same,relative viability,TPCA-1 + Foretinib; first compound 0.4 µM,0.94
same,relative viability,TPCA-1 + Foretinib; first compound 1.265 µM,0.633
same,relative viability,TPCA-1 + Foretinib; first compound 4 µM,0.587
same,relative viability,Lestaurtinib + OSI-027; first compound 0.005 µM,0.547
same,relative viability,Lestaurtinib + OSI-027; first compound 0.01581 µM,0.42
same,relative viability,Lestaurtinib + OSI-027; first compound 0.05 µM,0.125
same,relative viability,Lestaurtinib + OSI-027; first compound 0.1581 µM,0.215
same,relative viability,Lestaurtinib + OSI-027; first compound 0.5 µM,0.182
same,relative viability,[2]; first compound 0.2 µM,0.175
same,relative viability,[2]; first compound 0.6325 µM,0.178
same,relative viability,[2]; first compound 2 µM,0.167
same,relative viability,[2]; first compound 6.325 µM,0.165
same,relative viability,[2]; first compound 20 µM,0.187
COR-L23,relative viability,[1]; first compound 0.2 µM,0.583
same,relative viability,[1]; first compound 0.6325 µM,0.692
same,relative viability,[1]; first compound 2 µM,0.577
same,relative viability,[1]; first compound 6.325 µM,0.721
same,relative viability,[1]; first compound 20 µM,0.544
same,relative viability,TPCA-1 + Foretinib; first compound 0.04 µM,1.11
same,relative viability,TPCA-1 + Foretinib; first compound 0.1265 µM,0.884
same,relative viability,TPCA-1 + Foretinib; first compound 0.4 µM,1.05
same,relative viability,TPCA-1 + Foretinib; first compound 1.265 µM,0.916
same,relative viability,TPCA-1 + Foretinib; first compound 4 µM,0.803
same,relative viability,Lestaurtinib + OSI-027; first compound 0.005 µM,0.612
same,relative viability,Lestaurtinib + OSI-027; first compound 0.01581 µM,0.933
same,relative viability,Lestaurtinib + OSI-027; first compound 0.05 µM,0.281
same,relative viability,Lestaurtinib + OSI-027; first compound 0.1581 µM,0.395
same,relative viability,Lestaurtinib + OSI-027; first compound 0.5 µM,0.343
same,relative viability,[2]; first compound 0.2 µM,0.2
same,relative viability,[2]; first compound 0.6325 µM,0.193
same,relative viability,[2]; first compound 2 µM,0.196
same,relative viability,[2]; first compound 6.325 µM,0.182
same,relative viability,[2]; first compound 20 µM,0.199
NCI-H1355,relative viability,[1]; first compound 0.2 µM,0.71
same,relative viability,[1]; first compound 0.6325 µM,0.7
same,relative viability,[1]; first compound 2 µM,0.733
same,relative viability,[1]; first compound 6.325 µM,0.687
same,relative viability,[1]; first compound 20 µM,0.662
same,relative viability,TPCA-1 + Foretinib; first compound 0.04 µM,0.991
same,relative viability,TPCA-1 + Foretinib; first compound 0.1265 µM,0.837
same,relative viability,TPCA-1 + Foretinib; first compound 0.4 µM,0.977
same,relative viability,TPCA-1 + Foretinib; first compound 1.265 µM,0.932
same,relative viability,TPCA-1 + Foretinib; first compound 4 µM,0.705
same,relative viability,Lestaurtinib + OSI-027; first compound 0.005 µM,0.387
same,relative viability,Lestaurtinib + OSI-027; first compound 0.01581 µM,0.438
same,relative viability,Lestaurtinib + OSI-027; first compound 0.05 µM,0.362
same,relative viability,Lestaurtinib + OSI-027; first compound 0.1581 µM,0.309
same,relative viability,Lestaurtinib + OSI-027; first compound 0.5 µM,0.286
same,relative viability,[2]; first compound 0.2 µM,1.06
same,relative viability,[2]; first compound 0.6325 µM,0.922
same,relative viability,[2]; first compound 2 µM,1
same,relative viability,[2]; first compound 6.325 µM,0.96
same,relative viability,[2]; first compound 20 µM,0.971
NCI-H1666,relative viability,[1]; first compound 0.2 µM,1.09
same,relative viability,[1]; first compound 0.6325 µM,1.01
same,relative viability,[1]; first compound 2 µM,1.02
same,relative viability,[1]; first compound 6.325 µM,0.49
same,relative viability,[1]; first compound 20 µM,1.04
same,relative viability,TPCA-1 + Foretinib; first compound 0.04 µM,0.961
same,relative viability,TPCA-1 + Foretinib; first compound 0.1265 µM,0.942
same,relative viability,TPCA-1 + Foretinib; first compound 0.4 µM,0.931
same,relative viability,TPCA-1 + Foretinib; first compound 1.265 µM,0.962
same,relative viability,TPCA-1 + Foretinib; first compound 4 µM,0.997
same,relative viability,Lestaurtinib + OSI-027; first compound 0.005 µM,0.904
same,relative viability,Lestaurtinib + OSI-027; first compound 0.01581 µM,0.934
same,relative viability,Lestaurtinib + OSI-027; first compound 0.05 µM,0.917
same,relative viability,Lestaurtinib + OSI-027; first compound 0.1581 µM,0.757
same,relative viability,Lestaurtinib + OSI-027; first compound 0.5 µM,0.518
same,relative viability,[2]; first compound 0.2 µM,0.82
same,relative viability,[2]; first compound 0.6325 µM,0.84
same,relative viability,[2]; first compound 2 µM,0.877
same,relative viability,[2]; first compound 6.325 µM,0.791
same,relative viability,[2]; first compound 20 µM,0.813
EPLC-272H,relative viability,[1]; first compound 0.2 µM,0.53
same,relative viability,[1]; first compound 0.6325 µM,0.326
same,relative viability,[1]; first compound 2 µM,0.267
same,relative viability,[1]; first compound 6.325 µM,0.513
same,relative viability,[1]; first compound 20 µM,0.561
same,relative viability,TPCA-1 + Foretinib; first compound 0.04 µM,0.747
same,relative viability,TPCA-1 + Foretinib; first compound 0.1265 µM,0.643
same,relative viability,TPCA-1 + Foretinib; first compound 0.4 µM,0.815
same,relative viability,TPCA-1 + Foretinib; first compound 1.265 µM,0.456
same,relative viability,TPCA-1 + Foretinib; first compound 4 µM,0.309
same,relative viability,Lestaurtinib + OSI-027; first compound 0.005 µM,0.288
same,relative viability,Lestaurtinib + OSI-027; first compound 0.01581 µM,0.278
same,relative viability,Lestaurtinib + OSI-027; first compound 0.05 µM,0.222
same,relative viability,Lestaurtinib + OSI-027; first compound 0.1581 µM,0.223
same,relative viability,Lestaurtinib + OSI-027; first compound 0.5 µM,0.166
same,relative viability,[2]; first compound 0.2 µM,0.351
same,relative viability,[2]; first compound 0.6325 µM,0.468
same,relative viability,[2]; first compound 2 µM,0.334
same,relative viability,[2]; first compound 6.325 µM,0.301
same,relative viability,[2]; first compound 20 µM,0.373
ChaGo-K-1,relative viability,[1]; first compound 0.2 µM,0.62
same,relative viability,[1]; first compound 0.6325 µM,0.652
same,relative viability,[1]; first compound 2 µM,0.45
same,relative viability,[1]; first compound 6.325 µM,0.295
same,relative viability,[1]; first compound 20 µM,0.22
same,relative viability,TPCA-1 + Foretinib; first compound 0.04 µM,0.998
same,relative viability,TPCA-1 + Foretinib; first compound 0.1265 µM,0.894
same,relative viability,TPCA-1 + Foretinib; first compound 0.4 µM,0.992
same,relative viability,TPCA-1 + Foretinib; first compound 1.265 µM,0.857
same,relative viability,TPCA-1 + Foretinib; first compound 4 µM,0.612
same,relative viability,Lestaurtinib + OSI-027; first compound 0.005 µM,0.608
same,relative viability,Lestaurtinib + OSI-027; first compound 0.01581 µM,0.626
same,relative viability,Lestaurtinib + OSI-027; first compound 0.05 µM,0.5
same,relative viability,Lestaurtinib + OSI-027; first compound 0.1581 µM,0.376
same,relative viability,Lestaurtinib + OSI-027; first compound 0.5 µM,0.373
same,relative viability,[2]; first compound 0.2 µM,0.259
same,relative viability,[2]; first compound 0.6325 µM,0.26
same,relative viability,[2]; first compound 2 µM,0.278
same,relative viability,[2]; first compound 6.325 µM,0.224
same,relative viability,[2]; first compound 20 µM,0.25
